Measurements taken from PubChem BioAssay AID248 (DTP/NCI, 2004).
Values joined by “and” are separate entries in the source; they are usually repeats but may differ in a detail not shown here. Identical values can stand only once. Inconclusive results and toxic doses are left out.

Test system: L1210 leukemia ip in BDF1 mice, survival T/C
Test: NCI In Vivo Anticancer Drug Screen. Data for tumor model L1210 Leukemia (intraperitoneal) in B6D2F1 (BDF1) mice
Details: higher = longer survival
How it was run: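 Transplantable tumor model; survival measured in treated vs vehicle control mice. Value = treated/control.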

[1] = endpoint: mean survival time, dose: 50.0 mg/kg/injection, schedule: Q01DX001 (ip), vehicle: carboxymethylcellulose (CMC)
[2] = endpoint: mean survival time, dose: 100.0 mg/kg/injection, schedule: Q04DX003 (ip), vehicle: saline with Tween-80
[3] = endpoint: mean survival time, dose: 100.0 mg/kg/injection, schedule: Q01DX001 (ip), vehicle: carboxymethylcellulose (CMC)
[4] = endpoint: mean survival time, dose: 200.0 mg/kg/injection, schedule: Q01DX001 (ip), vehicle: carboxymethylcellulose (CMC)
[5] = endpoint: mean survival time, dose: 400.0 mg/kg/injection, schedule: Q01DX001 (ip), vehicle: carboxymethylcellulose (CMC)
[6] = endpoint: mean survival time, dose: 100.0 mg/kg/injection, schedule: Q01DX001 (ip), vehicle: saline
[7] = endpoint: mean survival time, dose: 200.0 mg/kg/injection, schedule: Q01DX001 (ip), vehicle: saline
[8] = endpoint: mean survival time, dose: 400.0 mg/kg/injection, schedule: Q01DX001 (ip), vehicle: saline
[9] = endpoint: mean survival time, dose: 100.0 mg/kg/injection, schedule: Q04DX002 (ip), vehicle: Klucel (hydroxypropylcellulose) (HPC)
[10] = endpoint: mean survival time, dose: 200.0 mg/kg/injection, schedule: Q04DX002 (ip), vehicle: Klucel (hydroxypropylcellulose) (HPC)
[11] = endpoint: mean survival time, dose: 100.0 mg/kg/injection, schedule: Q01DX009 (ip), vehicle: Klucel (hydroxypropylcellulose) (HPC)
[12] = endpoint: mean survival time, dose: 200.0 mg/kg/injection, schedule: Q01DX009 (ip), vehicle: Klucel (hydroxypropylcellulose) (HPC)

Structure (SMILES): O=NN(CCCl)C(=O)Nc1c[nH]c(=O)[nH]c1=O
- T/C (endpoint: mean survival time, dose: 0.75 mg/kg/injection, schedule: Q01DX Z (ip), vehicle: carboxymethylcellulose (CMC)): 200 % of control
- T/C (endpoint: mean survival time, dose: 1.0 mg/kg/injection, schedule: Q01DX Z (ip), vehicle: carboxymethylcellulose (CMC)): 177 % of control
- T/C (endpoint: mean survival time, dose: 1.5 mg/kg/injection, schedule: Q01DX Z (ip), vehicle: carboxymethylcellulose (CMC)): 185 % of control
- T/C (endpoint: mean survival time, dose: 2.0 mg/kg/injection, schedule: Q01DX Z (ip), vehicle: carboxymethylcellulose (CMC)): 192 % of control
- T/C (endpoint: mean survival time, dose: 3.0 mg/kg/injection, schedule: Q01DX Z (ip), vehicle: carboxymethylcellulose (CMC)): 210 % of control and 212 % of control
- T/C (endpoint: mean survival time, dose: 6.0 mg/kg/injection, schedule: Q01DX Z (ip), vehicle: carboxymethylcellulose (CMC)): 189 % of control
- T/C (endpoint: mean survival time, dose: 18.0 mg/kg/injection, schedule: Q01DX Z (ip), vehicle: carboxymethylcellulose (CMC)): 110 % of control
- T/C (endpoint: mean survival time, dose: 20.0 mg/kg/injection, schedule: Q01DX001 (ip), vehicle: carboxymethylcellulose (CMC)): 205 % of control
- T/C (endpoint: mean survival time, dose: 31.0 mg/kg/injection, schedule: Q01DX001 (ip), vehicle: carboxymethylcellulose (CMC)): 155 % of control
- T/C (endpoint: mean survival time, dose: 40.0 mg/kg/injection, schedule: Q01DX001 (ip), vehicle: carboxymethylcellulose (CMC)): 288 % of control
- T/C [1]: 229 % of control
- T/C (endpoint: mean survival time, dose: 62.0 mg/kg/injection, schedule: Q01DX001 (ip), vehicle: carboxymethylcellulose (CMC)): 231 % of control
- T/C (endpoint: mean survival time, dose: 80.0 mg/kg/injection, schedule: Q01DX001 (ip), vehicle: carboxymethylcellulose (CMC)): 174 % of control
- T/C (endpoint: mean survival time, dose: 125.0 mg/kg/injection, schedule: Q01DX001 (ip), vehicle: carboxymethylcellulose (CMC)): 89 % of control

Structure (SMILES): CCN(C(=O)N(CCCl)N=O)C1CCCCC1
- T/C (endpoint: mean survival time, dose: 75.0 mg/kg/injection, schedule: Q01DX001 (ip), vehicle: saline): 97 % of control

Structure (SMILES): CCCCCCCCOC(=O)COc1cccc(C)c1
- T/C (endpoint: mean survival time, dose: 100.0 mg/kg/injection, schedule: Q04DX002 (ip), vehicle: saline with Tween-80): 103 % of control
- T/C (endpoint: mean survival time, dose: 200.0 mg/kg/injection, schedule: Q04DX002 (ip), vehicle: saline with Tween-80): 100 % of control
- T/C (endpoint: mean survival time, dose: 400.0 mg/kg/injection, schedule: Q04DX002 (ip), vehicle: saline with Tween-80): 100 % of control

Structure (SMILES): CCCC(O)C1CCCCC1O (stereo not drawn)
- T/C [2]: 113 % of control
- T/C (endpoint: mean survival time, dose: 200.0 mg/kg/injection, schedule: Q04DX003 (ip), vehicle: saline with Tween-80): 100 % of control
- T/C (endpoint: mean survival time, dose: 400.0 mg/kg/injection, schedule: Q04DX003 (ip), vehicle: saline with Tween-80): 103 % of control

Structure (SMILES): O=C(C=P(c1ccccc1)(c1ccccc1)c1ccccc1)c1ccc(Br)cc1
- T/C [1]: 99 % of control
- T/C [3]: 99 % of control
- T/C [4]: 96 % of control
- T/C [5]: 99 % of control

Structure (SMILES): CC1NC(=S)N(c2ccc(S(=O)(=O)c3ccc(N4C(=O)C(C)NC4=S)cc3)cc2)C1=O (stereo not drawn)
- T/C [6]: 102 % of control
- T/C [7]: 98 % of control
- T/C [8]: 98 % of control

Structure (SMILES): O=C(NCc1ccccc1Cl)Nc1ccc(F)cc1
- T/C [3]: 92 % of control
- T/C (endpoint: mean survival time, dose: 100.0 mg/kg/injection, schedule: Q01DX009 (ip), vehicle: carboxymethylcellulose (CMC)): 92 % of control and 93 % of control
- T/C (endpoint: mean survival time, dose: 100.0 mg/kg/injection, schedule: Q04DX002 (ip), vehicle: carboxymethylcellulose (CMC)): 95 % of control (2×) and 97 % of control
- T/C (endpoint: mean survival time, dose: 100.0 mg/kg/injection, schedule: Q04DX003 (ip), vehicle: carboxymethylcellulose (CMC)): 95 % of control
- T/C [4]: 96 % of control
- T/C (endpoint: mean survival time, dose: 200.0 mg/kg/injection, schedule: Q01DX009 (ip), vehicle: carboxymethylcellulose (CMC)): 101 % of control
- T/C (endpoint: mean survival time, dose: 200.0 mg/kg/injection, schedule: Q04DX002 (ip), vehicle: carboxymethylcellulose (CMC)): 94 % of control and 96 % of control and 88 % of control
- T/C (endpoint: mean survival time, dose: 200.0 mg/kg/injection, schedule: Q04DX003 (ip), vehicle: carboxymethylcellulose (CMC)): 96 % of control
- T/C [5]: 87 % of control
- T/C (endpoint: mean survival time, dose: 400.0 mg/kg/injection, schedule: Q01DX009 (ip), vehicle: carboxymethylcellulose (CMC)): 92 % of control and 88 % of control
- T/C (endpoint: mean survival time, dose: 400.0 mg/kg/injection, schedule: Q04DX002 (ip), vehicle: carboxymethylcellulose (CMC)): 93 % of control
- T/C (endpoint: mean survival time, dose: 400.0 mg/kg/injection, schedule: Q04DX003 (ip), vehicle: carboxymethylcellulose (CMC)): 91 % of control

Structure (SMILES): O=C1c2ccccc2C(=O)N1Cc1ccc([N+](=O)[O-])cc1
- T/C (endpoint: mean survival time, dose: 100.0 mg/kg/injection, schedule: Q01DX001 (ip), vehicle: other): 96 % of control
- T/C (endpoint: mean survival time, dose: 100.0 mg/kg/injection, schedule: Q04DX003 (ip), vehicle: Klucel (hydroxypropylcellulose) (HPC)): 103 % of control
- T/C (endpoint: mean survival time, dose: 200.0 mg/kg/injection, schedule: Q01DX001 (ip), vehicle: other): 87 % of control
- T/C (endpoint: mean survival time, dose: 200.0 mg/kg/injection, schedule: Q04DX003 (ip), vehicle: Klucel (hydroxypropylcellulose) (HPC)): 101 % of control
- T/C (endpoint: mean survival time, dose: 400.0 mg/kg/injection, schedule: Q01DX001 (ip), vehicle: other): 95 % of control
- T/C (endpoint: mean survival time, dose: 400.0 mg/kg/injection, schedule: Q04DX003 (ip), vehicle: Klucel (hydroxypropylcellulose) (HPC)): 97 % of control

Structure (SMILES): CC12C(=O)OC(=O)C1C1C=CC2C1 (stereo not drawn)
- T/C [9]: 102 % of control
- T/C (endpoint: mean survival time, dose: 100.0 mg/kg/injection, schedule: Q04DX003 (ip), vehicle: other): 98 % of control
- T/C [10]: 102 % of control
- T/C (endpoint: mean survival time, dose: 200.0 mg/kg/injection, schedule: Q04DX003 (ip), vehicle: other): 102 % of control

Structure (SMILES): CS(=O)(=O)N1CC(O)CN(S(C)(=O)=O)CC(O)C1 (stereo not drawn)
- T/C (endpoint: mean survival time, dose: 25.0 mg/kg/injection, schedule: Q04DX002 (ip), vehicle: Klucel (hydroxypropylcellulose) (HPC)): 100 % of control
- T/C (endpoint: mean survival time, dose: 50.0 mg/kg/injection, schedule: Q04DX002 (ip), vehicle: Klucel (hydroxypropylcellulose) (HPC)): 100 % of control
- T/C [9]: 110 % of control

Structure (SMILES): CCCC(C)OS(=O)(=O)c1ccc([N+](=O)[O-])cc1 (stereo not drawn)
- T/C (endpoint: mean survival time, dose: 100.0 mg/kg/injection, schedule: Q04DX002 (ip), vehicle: saline): 101 % of control
- T/C (endpoint: mean survival time, dose: 200.0 mg/kg/injection, schedule: Q04DX002 (ip), vehicle: saline): 90 % of control
- T/C (endpoint: mean survival time, dose: 400.0 mg/kg/injection, schedule: Q04DX002 (ip), vehicle: saline): 92 % of control

Structure (SMILES): CC(C)N(C(=O)C1C2C=CC(C2)C1C(=O)N(C(C)C)C(C)C)C(C)C (stereo not drawn)
- T/C (endpoint: mean survival time, dose: 25.0 mg/kg/injection, schedule: Q04DX003 (ip), vehicle: saline with Tween-80): 98 % of control
- T/C (endpoint: mean survival time, dose: 50.0 mg/kg/injection, schedule: Q04DX003 (ip), vehicle: saline with Tween-80): 98 % of control
- T/C [2]: 106 % of control and 107 % of control

Structure (SMILES): N=c1c2n[nH]nc2ncn1O
- T/C (endpoint: mean survival time, dose: 75.0 mg/kg/injection, schedule: Q01DX001 (ip), vehicle: other): 92 % of control
- T/C (endpoint: mean survival time, dose: 150.0 mg/kg/injection, schedule: Q01DX001 (ip), vehicle: other): 110 % of control
- T/C (endpoint: mean survival time, dose: 300.0 mg/kg/injection, schedule: Q01DX001 (ip), vehicle: other): 101 % of control

Structure (SMILES): CC(=O)c1cc2ccccc2oc1=O
- T/C (endpoint: mean survival time, dose: 100.0 mg/kg/injection, schedule: Q01DX009 (ip), vehicle: gum acacia): 117 % of control
- T/C (endpoint: mean survival time, dose: 200.0 mg/kg/injection, schedule: Q01DX009 (ip), vehicle: gum acacia): 108 % of control
- T/C (endpoint: mean survival time, dose: 400.0 mg/kg/injection, schedule: Q01DX009 (ip), vehicle: gum acacia): 107 % of control

Structure (SMILES): CCOC(=O)c1ccccn1
- T/C [6]: 98 % of control
- T/C [7]: 98 % of control

Structure (SMILES): COc1ccc2c(ccc3oc([N+](=O)[O-])cc32)c1
- T/C (endpoint: median survival time, dose: 12.5 mg/kg/injection, schedule: Q01DX009 (ip), vehicle: Klucel (hydroxypropylcellulose) (HPC)): 100 % of control
- T/C (endpoint: median survival time, dose: 25.0 mg/kg/injection, schedule: Q01DX009 (ip), vehicle: Klucel (hydroxypropylcellulose) (HPC)): 95 % of control
- T/C (endpoint: median survival time, dose: 50.0 mg/kg/injection, schedule: Q01DX009 (ip), vehicle: Klucel (hydroxypropylcellulose) (HPC)): 101 % of control
- T/C (endpoint: median survival time, dose: 100.0 mg/kg/injection, schedule: Q01DX009 (ip), vehicle: Klucel (hydroxypropylcellulose) (HPC)): 108 % of control
- T/C (endpoint: median survival time, dose: 200.0 mg/kg/injection, schedule: Q01DX009 (ip), vehicle: Klucel (hydroxypropylcellulose) (HPC)): 106 % of control

Structure (SMILES): CCC1=CC(=O)CCC1
- T/C (endpoint: mean survival time, dose: 50.0 mg/kg/injection, schedule: Q01DX001 (ip), vehicle: saline): 96 % of control
- T/C [6]: 100 % of control
- T/C [7]: 102 % of control
- T/C [8]: 108 % of control

Structure (SMILES): Cc1noc(-c2ccc([N+](=O)[O-])o2)n1
- T/C [9]: 94 % of control
- T/C [10]: 105 % of control

Structure (SMILES): Cc1nc2ccccc2c2ccccc12
- T/C (endpoint: mean survival time, dose: 50.0 mg/kg/injection, schedule: Q01DX009 (ip), vehicle: Klucel (hydroxypropylcellulose) (HPC)): 111 % of control
- T/C [11]: 105 % of control
- T/C [12]: 111 % of control

Structure (SMILES): O=C(O)CCCCOc1ccc([N+](=O)[O-])cc1Cl
- T/C [11]: 109 % of control
- T/C [12]: 103 % of control
